# Measured values reported in publication PMC11845477, “Exploring the principles behind antibiotics with limited resistance” (Nature Communications, 2025).
# Legend:
# [1] = tested on: P. aeruginosa ATCC BAA-3107 (SEN) and P. aeruginosa LESB58 (MDR); assay: Frequency-of-resistance (FoR) assay, relative MIC of mutants; assay type: cell-based, Pseudomonas aeruginosa
# Protocol: The susceptibility of antibiotics to resistance development was evaluated in two strains of each bacterial species: a multidrug-resistant strain and an antibiotic-sensitive strain of Escherichia coli, Klebsiella pneumoniae, Acinetobacter baumannii, and Pseudomonas aeruginosa. To explore first-step resistance, we previously used a standard protocol for spontaneous frequency-of-resistance analysis (FoR assay) at multiple concentrations of each antibiotic[10],[28],[31]–[33]. […] For all other combinations, approximately 10^10 bacterial cells were exposed to one of each antibiotic on agar plates for two days at concentrations where the given strain is susceptible. We examined resistance levels by contrasting the minimum inhibitory concentration (MICs) of the mutated strains to the original wild-type bacterial strain (i.e., relative MIC).
# To estimate the frequency of spontaneous mutations that confer resistance in a microbial population, we conducted a frequency of resistance (FoR) assay following established protocols[10],[31]–[33]. […] Prior to plating, bacteria were grown overnight in MHB medium at 37 °C and 250 RPM, then centrifuged and washed in MHB. All experiments were performed in triplicate, and plates were incubated at 37 °C for 48 hours. Total colony-forming units (CFUs) were determined by plating appropriate dilutions onto antibiotic-free MHB agar. Resistance frequencies were calculated by dividing the number of resistant colonies by the initial viable cell count. From the plates with the highest antibiotic concentration, ten colonies were selected for MIC determination and whole-genome sequencing.
# (§1) A robotic liquid handling system was used to automatically prepare a 11 to 16-step serial dilution in 384-well microtiter plates (Greiner). A final concentration of 5 × 10^5 bacterial cells per mL were inoculated into each well containing 60 µL MHB medium. Bacterial cultures were incubated at 37 °C with continuous shaking (Infors shaker, 900 rpm with 3 mm throw) for 18 hours (2 replicates from each). Cell growth was monitored by measuring the optical density (OD600 values, using Biotek Synergy microplate reader). MIC was defined as the antibiotic concentration of complete growth inhibition (i.e., OD600 < 0.05). Relative MIC was calculated as follows:1 relativeMIC=MICevolved/MICancestor […]
# Supplementary Figure 3. Resistance levels following the frequency of resistance assay across bacterial strains. The level of resistance was measured as the fold change in relative MIC between evolved and ancestral strains. Data are grouped by bacterial strain (A. baumannii (AB), E. coli (EC), K. pneumoniae (KP), and P. aeruginosa (PA)) and categorized as either multidrug-resistant (MDR) or sensitive (SEN). Each data point represents a laboratory evolved line, and boxplots show the median, first and third quartiles, with whiskers indicating the 5th and 95th percentiles. […]
# analysis was performed using two-sided Dunn’s post-hoc test with Benjamini-Hochberg correction for multiple comparisons (**/ * indicates p < 0.01/ 0.05). For detailed information on antibiotic and bacterial species, see Supplementary Table 1. For mode of action groups, refer to Table 1. Source data are provided as a Source Data file.
# [2] = tested on: P. aeruginosa ATCC BAA-3107 (SEN) and P. aeruginosa LESB58 (MDR); assay: Adaptive laboratory evolution (ALE), relative MIC of evolved lines; assay type: cell-based, Pseudomonas aeruginosa
# From the text: Using the same set of bacterial strains, we initiated adaptive laboratory evolution with the aim to maximize the level of antibiotic resistance in the populations achieved during a longer, but fixed time period.
# An established protocol for adaptive laboratory evolution[46],[73] was followed to propagate populations with the highest resistance levels. Starting with an antibiotic concentration that caused approximately 50% growth inhibition, ten parallel populations for each antibiotic-ancestor strain combination were grown for 72 hours at 37 °C with continuous shaking (300 RPM). MHB broth medium was used unless stated otherwise. After each incubation, 20 µl of each culture was transferred to four new wells containing fresh medium with increasing antibiotic concentrations (0.5×, 1×, 1.5×, and 2.5× the previous concentration) in a chessboard layout to monitor potential cross-contamination. Growth was monitored by measuring OD600 using a Biotek Synergy 2 microplate reader, and only populations grown in the highest drug concentration with an OD600 > 0.2 were transferred further.
# as §1
# Supplementary Figure 4. Resistance levels following adaptive laboratory evolution across bacterial strains. The level of resistance was measured as the fold change in relative MIC between evolved and ancestral strains after ~60 days of adaptive laboratory evolution. Data are grouped by bacterial strain (A. baumannii (AB), E. coli (EC), K. pneumoniae (KP), and P. aeruginosa (PA)) and categorized as either multidrug-resistant (MDR) or sensitive (SEN). Each data point represents a laboratory evolved line, and boxplots show the median, first and third quartiles, with whiskers indicating the 5th and 95th percentiles.
# Statistical analysis was performed using two-sided Dunn’s post-hoc test with Benjamini-Hochberg correction for multiple comparisons (****/ ***/ **/ * indicates p < 0.0001/ 0.001/ 0.01/ 0.05). For detailed information on antibiotic and bacterial species, see Supplementary Table 1. For mode of action groups, refer to Table 1. Source data are provided as a Source Data file.
structure (smiles),measurement,setting,value
Nc1nc(-n2cc(C(=O)O)c(=O)c3cc(F)c(N4CC(O)C4)c(Cl)c32)c(F)cc1F [Delafloxacin],MIC of evolved line,"[1]; P. aeruginosa ATCC BAA 3107 (PA-SEN), evolved line 1",2 µg/mL
same,MIC of evolved line,"[1]; P. aeruginosa ATCC BAA 3107 (PA-SEN), evolved line 2",2 µg/mL
same,MIC of evolved line,"[1]; P. aeruginosa ATCC BAA 3107 (PA-SEN), evolved line 3",2 µg/mL
same,MIC of evolved line,"[1]; P. aeruginosa LESB 58 (PA-MDR), evolved line 1",8 µg/mL
same,Relative MIC,"[1]; P. aeruginosa LESB 58 (PA-MDR), evolved line 1, evolved vs ancestor",4
same,MIC of evolved line,"[1]; P. aeruginosa LESB 58 (PA-MDR), evolved line 2",8 µg/mL
same,Relative MIC,"[1]; P. aeruginosa LESB 58 (PA-MDR), evolved line 2, evolved vs ancestor",4
same,MIC of evolved line,"[1]; P. aeruginosa LESB 58 (PA-MDR), evolved line 3",4 µg/mL
same,Relative MIC,"[1]; P. aeruginosa LESB 58 (PA-MDR), evolved line 3, evolved vs ancestor",2
same,Relative MIC,"[2]; PA-MDR (LESB 58), evolved line 1, MIC of evolved line / MIC of ancestor",64
same,Relative MIC,"[2]; PA-MDR (LESB 58), evolved line 2, MIC of evolved line / MIC of ancestor",64
same,Relative MIC,"[2]; PA-MDR (LESB 58), evolved line 3, MIC of evolved line / MIC of ancestor",64
same,MIC of evolved line,"[2]; PA-MDR (LESB 58), evolved line 4",128 µg/mL
same,Relative MIC,"[2]; PA-MDR (LESB 58), evolved line 4, MIC of evolved line / MIC of ancestor",64
same,MIC of evolved line,"[2]; PA-MDR (LESB 58), evolved line 5",128 µg/mL
same,Relative MIC,"[2]; PA-MDR (LESB 58), evolved line 5, MIC of evolved line / MIC of ancestor",64
same,MIC of evolved line,"[2]; PA-MDR (LESB 58), evolved line 6",64 µg/mL
same,Relative MIC,"[2]; PA-MDR (LESB 58), evolved line 6, MIC of evolved line / MIC of ancestor",32
same,MIC of evolved line,"[2]; PA-MDR (LESB 58), evolved line 7",128 µg/mL
same,Relative MIC,"[2]; PA-MDR (LESB 58), evolved line 7, MIC of evolved line / MIC of ancestor",64
same,MIC of evolved line,"[2]; PA-MDR (LESB 58), evolved line 8",128 µg/mL
same,Relative MIC,"[2]; PA-MDR (LESB 58), evolved line 8, MIC of evolved line / MIC of ancestor",64
same,MIC of evolved line,"[2]; PA-MDR (LESB 58), evolved line 9",128 µg/mL
same,Relative MIC,"[2]; PA-MDR (LESB 58), evolved line 9, MIC of evolved line / MIC of ancestor",64
same,MIC of evolved line,"[2]; PA-MDR (LESB 58), evolved line 10",64 µg/mL
same,Relative MIC,"[2]; PA-MDR (LESB 58), evolved line 10, MIC of evolved line / MIC of ancestor",32
same,Relative MIC (log10),"[2]; PA-MDR (Pseudomonas aeruginosa LESB 58), evolved line 2 adapted to the named antibiotic",1.806
same,Relative MIC (log10),"[2]; PA-MDR (Pseudomonas aeruginosa LESB 58), evolved line 4 adapted to the named antibiotic",1.806
same,Relative MIC (log10),"[2]; PA-MDR (Pseudomonas aeruginosa LESB 58), evolved line 6 adapted to the named antibiotic",1.505
same,Relative MIC (log10),"[2]; PA-MDR (Pseudomonas aeruginosa LESB 58), evolved line 7 adapted to the named antibiotic",1.806
same,Relative MIC (log10),"[2]; PA-MDR (Pseudomonas aeruginosa LESB 58), evolved line 9 adapted to the named antibiotic",1.806
same,MIC of evolved line,"[2]; PA-MDR LESB 58, evolved line 1",128 µg/mL
same,MIC of evolved line,"[2]; PA-MDR LESB 58, evolved line 2",128 µg/mL
same,MIC of evolved line,"[2]; PA-MDR LESB 58, evolved line 3",128 µg/mL
same,MIC of evolved line,"[2]; PA-SEN (ATCC BAA 3107), evolved line 2",32 µg/mL
same,Relative MIC,"[2]; PA-SEN (ATCC BAA 3107), evolved line 2, MIC of evolved line / MIC of ancestor",2048
same,MIC of evolved line,"[2]; PA-SEN (ATCC BAA 3107), evolved line 3",64 µg/mL
same,Relative MIC,"[2]; PA-SEN (ATCC BAA 3107), evolved line 3, MIC of evolved line / MIC of ancestor",4096
same,MIC of evolved line,"[2]; PA-SEN (ATCC BAA 3107), evolved line 4",32 µg/mL
same,Relative MIC,"[2]; PA-SEN (ATCC BAA 3107), evolved line 4, MIC of evolved line / MIC of ancestor",2048
same,MIC of evolved line,"[2]; PA-SEN (ATCC BAA 3107), evolved line 5",32 µg/mL
same,Relative MIC,"[2]; PA-SEN (ATCC BAA 3107), evolved line 5, MIC of evolved line / MIC of ancestor",2048
same,MIC of evolved line,"[2]; PA-SEN (ATCC BAA 3107), evolved line 6",64 µg/mL
same,Relative MIC,"[2]; PA-SEN (ATCC BAA 3107), evolved line 6, MIC of evolved line / MIC of ancestor",4096
same,MIC of evolved line,"[2]; PA-SEN (ATCC BAA 3107), evolved line 7",32 µg/mL
same,Relative MIC,"[2]; PA-SEN (ATCC BAA 3107), evolved line 7, MIC of evolved line / MIC of ancestor",2048
same,MIC of evolved line,"[2]; PA-SEN (ATCC BAA 3107), evolved line 8",32 µg/mL
same,Relative MIC,"[2]; PA-SEN (ATCC BAA 3107), evolved line 8, MIC of evolved line / MIC of ancestor",2048
same,MIC of evolved line,"[2]; PA-SEN (ATCC BAA 3107), evolved line 9",32 µg/mL
same,Relative MIC,"[2]; PA-SEN (ATCC BAA 3107), evolved line 9, MIC of evolved line / MIC of ancestor",2048
same,MIC of evolved line,"[2]; PA-SEN (ATCC BAA 3107), evolved line 10",32 µg/mL
same,Relative MIC,"[2]; PA-SEN (ATCC BAA 3107), evolved line 10, MIC of evolved line / MIC of ancestor",2048
same,Relative MIC (log10),"[2]; PA-SEN (Pseudomonas aeruginosa ATCC BAA 3107), evolved line 2 adapted to the named antibiotic",3.311
same,Relative MIC (log10),"[2]; PA-SEN (Pseudomonas aeruginosa ATCC BAA 3107), evolved line 7 adapted to the named antibiotic",3.311
same,Relative MIC (log10),"[2]; PA-SEN (Pseudomonas aeruginosa ATCC BAA 3107), evolved line 8 adapted to the named antibiotic",3.311
same,Relative MIC (log10),"[2]; PA-SEN (Pseudomonas aeruginosa ATCC BAA 3107), evolved line 10 adapted to the named antibiotic",3.311
same,Relative MIC,"[2]; Pseudomonas aeruginosa ATCC BAA 3107 (PA-SEN), evolved line 2",2048
same,Relative MIC,"[2]; Pseudomonas aeruginosa ATCC BAA 3107 (PA-SEN), evolved line 3",4096
same,Relative MIC,"[2]; Pseudomonas aeruginosa ATCC BAA 3107 (PA-SEN), evolved line 4",2048
same,Relative MIC,"[2]; Pseudomonas aeruginosa ATCC BAA 3107 (PA-SEN), evolved line 5",2048
same,Relative MIC,"[2]; Pseudomonas aeruginosa ATCC BAA 3107 (PA-SEN), evolved line 6",4096
same,Relative MIC,"[2]; Pseudomonas aeruginosa ATCC BAA 3107 (PA-SEN), evolved line 7",2048
same,Relative MIC,"[2]; Pseudomonas aeruginosa ATCC BAA 3107 (PA-SEN), evolved line 8",2048
same,Relative MIC,"[2]; Pseudomonas aeruginosa ATCC BAA 3107 (PA-SEN), evolved line 9",2048
same,Relative MIC,"[2]; Pseudomonas aeruginosa ATCC BAA 3107 (PA-SEN), evolved line 10",2048
same,Relative MIC,"[2]; Pseudomonas aeruginosa LESB 58 (PA-MDR), evolved line 1",64
same,Relative MIC,"[2]; Pseudomonas aeruginosa LESB 58 (PA-MDR), evolved line 2",64
same,Relative MIC,"[2]; Pseudomonas aeruginosa LESB 58 (PA-MDR), evolved line 3",64
same,Relative MIC,"[2]; Pseudomonas aeruginosa LESB 58 (PA-MDR), evolved line 4",64
same,Relative MIC,"[2]; Pseudomonas aeruginosa LESB 58 (PA-MDR), evolved line 5",64
same,Relative MIC,"[2]; Pseudomonas aeruginosa LESB 58 (PA-MDR), evolved line 6",32
same,Relative MIC,"[2]; Pseudomonas aeruginosa LESB 58 (PA-MDR), evolved line 7",64
same,Relative MIC,"[2]; Pseudomonas aeruginosa LESB 58 (PA-MDR), evolved line 8",64
same,Relative MIC,"[2]; Pseudomonas aeruginosa LESB 58 (PA-MDR), evolved line 9",64
same,Relative MIC,"[2]; Pseudomonas aeruginosa LESB 58 (PA-MDR), evolved line 10",32
